Key:
[1] = excess molar enthalpy (molar enthalpy of mixing); xn = mol fraction of the nth substance listed; settings: 318.15 K, 101.3 kPa, Liquid
[2] = xn = mol fraction of the nth substance listed; settings: 318.15 K, 101.3 kPa, Liquid

CCCCCOC(C)=O [pentyl ethanoate] + CCCCCCC
Settings	excess molar enthalpy [kcal/mol]	excess molar volume [m3/mol]
[1], x1 = 0.0544	0.0566	–
[1], x1 = 0.1187	0.104	–
[1], x1 = 0.1801	0.141	–
[1], x1 = 0.2428	0.169	–
[1], x1 = 0.3049	0.192	–
[1], x1 = 0.3645	0.205	–
[1], x1 = 0.4174	0.211	–
[1], x1 = 0.468	0.212	–
[1], x1 = 0.472	0.212	–
[1], x1 = 0.5161	0.209	–
[1], x1 = 0.5646	0.203	–
[1], x1 = 0.6163	0.191	–
[1], x1 = 0.6696	0.176	–
[1], x1 = 0.7277	0.155	–
[1], x1 = 0.7889	0.128	–
[1], x1 = 0.8473	0.0966	–
[1], x1 = 0.9078	0.0615	–
[1], x1 = 0.9594	0.0278	–
[2], x1 = 0.0546	–	1.29e-07
[2], x1 = 0.1048	–	2.14e-07
[2], x1 = 0.1515	–	2.65e-07
[2], x1 = 0.2014	–	3.07e-07
[2], x1 = 0.2488	–	3.45e-07
[2], x1 = 0.3009	–	3.81e-07
[2], x1 = 0.3474	–	3.99e-07
[2], x1 = 0.3999	–	4.11e-07
[2], x1 = 0.4426	–	4.09e-07
[2], x1 = 0.4977	–	3.97e-07
[2], x1 = 0.5503	–	3.72e-07
[2], x1 = 0.5881	–	3.55e-07
[2], x1 = 0.636	–	3.23e-07
[2], x1 = 0.7502	–	2.51e-07
[2], x1 = 0.8467	–	1.71e-07
[2], x1 = 0.9288	–	9.4e-08

CCCCCCCCCCCCCCC [pentadecane] + CCOC(C)=O
Settings	excess molar enthalpy [kcal/mol]	excess molar volume [m3/mol]
[1], x2 = 0.0901	0.134	–
[1], x2 = 0.1777	0.244	–
[1], x2 = 0.2582	0.339	–
[1], x2 = 0.3339	0.41	–
[1], x2 = 0.397	0.456	–
[1], x2 = 0.4609	0.489	–
[1], x2 = 0.5093	0.505	–
[1], x2 = 0.5557	0.511	–
[1], x2 = 0.6033	0.509	–
[1], x2 = 0.6563	0.495	–
[1], x2 = 0.6935	0.48	–
[1], x2 = 0.7292	0.457	–
[1], x2 = 0.7706	0.424	–
[1], x2 = 0.813	0.384	–
[1], x2 = 0.8538	0.332	–
[1], x2 = 0.8958	0.273	–
[1], x2 = 0.9283	0.21	–
[1], x2 = 0.9676	0.115	–
[2], x2 = 0.0932	–	4.44e-07
[2], x2 = 0.1272	–	5.87e-07
[2], x2 = 0.2314	–	9.83e-07
[2], x2 = 0.3237	–	1.237e-06
[2], x2 = 0.4048	–	1.412e-06
[2], x2 = 0.465	–	1.483e-06
[2], x2 = 0.5427	–	1.54e-06
[2], x2 = 0.5987	–	1.536e-06
[2], x2 = 0.6373	–	1.512e-06
[2], x2 = 0.6957	–	1.432e-06
[2], x2 = 0.7643	–	1.293e-06
[2], x2 = 0.8273	–	1.104e-06
[2], x2 = 0.8926	–	8.05e-07
[2], x2 = 0.9375	–	5.48e-07
[2], x2 = 0.9714	–	2.73e-07

CCCCCCCCCCCCCCC [pentadecane] + CCCCCOC(C)=O
Settings	excess molar enthalpy [kcal/mol]	excess molar volume [m3/mol]
[1], x2 = 0.0764	0.0832	–
[1], x2 = 0.1647	0.162	–
[1], x2 = 0.2553	0.227	–
[1], x2 = 0.3274	0.268	–
[1], x2 = 0.3976	0.296	–
[1], x2 = 0.4632	0.312	–
[1], x2 = 0.5222	0.317	–
[1], x2 = 0.5758	0.314	–
[1], x2 = 0.6183	0.305	–
[1], x2 = 0.6614	0.286	–
[1], x2 = 0.7069	0.264	–
[1], x2 = 0.7552	0.235	–
[1], x2 = 0.8041	0.2	–
[1], x2 = 0.856	0.158	–
[1], x2 = 0.9056	0.111	–
[1], x2 = 0.955	0.057	–
[2], x2 = 0.097	–	2.96e-07
[2], x2 = 0.1823	–	5.2e-07
[2], x2 = 0.2485	–	6.56e-07
[2], x2 = 0.3223	–	7.83e-07
[2], x2 = 0.3863	–	8.63e-07
[2], x2 = 0.4452	–	9.09e-07
[2], x2 = 0.5075	–	9.32e-07
[2], x2 = 0.5553	–	9.44e-07
[2], x2 = 0.6017	–	9.31e-07
[2], x2 = 0.6519	–	9.05e-07
[2], x2 = 0.6946	–	8.56e-07
[2], x2 = 0.7436	–	7.87e-07
[2], x2 = 0.7672	–	7.53e-07
[2], x2 = 0.8482	–	5.78e-07
[2], x2 = 0.9107	–	3.7e-07
[2], x2 = 0.9606	–	1.78e-07

Reference: the NIST ThermoML archive (doi:10.1016/j.jct.2003.11.008)
